Reference: patent US11304949B2, “Treatment of hidradenitis suppurativa using JAK inhibitors” (Incyte Corporation, priority 2018, dated 2022)

What was measured:
[1] = system: human JAK1 (a.a. 837-1142); assay: In vitro JAK kinase assay (HTRF), JAK1; format: biochemical; settings: IC50 ratio at 1 mM ATP
[2] = biological target: human JAK1 (a.a. 837-1142) (Homo sapiens, UniProt P23458); assay: In vitro JAK kinase assay (HTRF), JAK1; format: biochemical; settings: 1 mM ATP

Compound | JAK2/JAK1 [1] | IC50 [2]
C[C@H](O)CNCc1cc(OC2CCN([C@H]3C[C@](CC#N)(n4cc(-c5ncnc6[nH]ccc56)cn4)C3)CC2)nc(C(F)(F)F)c1 [Compound 25, {trans-3-(4-{[4-({[(2S)-2-hydroxypropyl]amino}methyl)-6-(trifluoromethyl)pyridin-2-yl]oxy}piperidin-1-yl)-1-[4-(7H-pyrrolo[2,3-d]pyrimidin-4-yl)-1H-pyrazol-1-yl]cyclobutyl}acetonitrile] | >10 | < 10 nM
N#CC[C@]1(n2cc(-c3ncnc4[nH]ccc34)cn2)C[C@H](N2CCC(Oc3cc(CCO)cc(C(F)(F)F)n3)CC2)C1 [Compound 26, {trans-3-(4-{[4-(2-hydroxyethyl)-6-(trifluoromethyl)pyridin-2-yl]oxy}piperidin-1-yl)-1-[4-(7H-pyrrolo[2,3-d]pyrimidin-4-yl)-1H-pyrazol-1-yl]cyclobutyl}acetonitrile] | >10 | < 10 nM
CC(C)(O)c1cc(O[C@H]2CC[C@@H](N3CC(CC#N)(n4cc(-c5ncnc6[nH]ccc56)cn4)C3)CC2)nc(C(F)(F)F)c1 [Compound 20, {1-(cis-4-{[4-(1-hydroxy-1-methylethyl)-6-(trifluoromethyl)pyridin-2-yl]oxy}cyclohexyl)-3-[4-(7H-pyrrolo[2,3-d]pyrimidin-4-yl)-1H-pyrazol-1-yl]azetidin-3-yl}acetonitrile] | >10 | < 10 nM
N#CCC1(n2cc(-c3ncnc4[nH]ccc34)cn2)CN([C@H]2CC[C@@H](Oc3cc(CN4CC[C@@H](O)C4)cc(C(F)(F)F)n3)CC2)C1 [Compound 21, {1-(cis-4-{[4-{[(3R)-3-hydroxypyrrolidin-1-yl]methyl}-6-(trifluoromethyl)pyridin-2-yl]oxy}cyclohexyl)-3-[4-(7H-pyrrolo[2,3-d]pyrimidin-4-yl)-1H-pyrazol-1-yl]azetidin-3-yl}acetonitrile] | >10 | < 10 nM

Results, then the compound that gave them:

JAK2/JAK1 [1] | IC50 [2] | Compound
>10 | < 10 nM | N#CCC1(n2cc(-c3ncnc4[nH]ccc34)cn2)CN(C2CCN(C(=O)Nc3ccc(F)cc3C(F)(F)F)CC2)C1 [Compound 2, 4-{3-(Cyanomethyl)-3-[4-(7H-pyrrolo[2,3-d]pyrimidin-4-yl)-1H-pyrazol-1-yl]azetidin-1-yl}-N-[4-fluoro-2-(trifluoromethyl)phenyl]piperidine-1-carboxamide]
>10 | < 10 nM | N#CCC(CN1CCN(C(=O)c2ccc(C#N)cc2F)CC1)n1cc(-c2ncnc3[nH]ccc23)cn1 (stereo not shown) [Compound 8, 4-[(4-{3-cyano-2-[4-(7H-pyrrolo[2,3-d]pyrimidin-4-yl)-1H-pyrazol-1-yl]propyl}piperazin-1-yl)carbonyl]-3-fluorobenzonitrile]
>10 | < 10 nM | N#CCC(CN1CCN(C(=O)c2ccc(C#N)cc2F)CC1)n1ccc(-c2ncnc3[nH]ccc23)c1 (stereo not shown) [Compound 9, 4-[(4-{3-cyano-2-[3-(7H-pyrrolo[2,3-d]pyrimidin-4-yl)-1H-pyrrol-1-yl]propyl}piperazin-1-yl)carbonyl]-3-fluorobenzonitrile]
>10 | < 10 nM | N#CCC(C1CCN(c2cccc(Cl)n2)C1)n1cc(-c2ncnc3[nH]ccc23)cn1 (single isomer, unassigned) [Compound 6, 3-[1-(6-chloropyridin-2-yl)pyrrolidin-3-yl]-3-[4-(7H-pyrrolo[2,3-d]pyrimidin-4-yl)-1H-pyrazol-1-yl]propanenitrile]
